Experimental data published in patent publication US4272507A, “Phenylaminothiophenacetic acids, their synthesis, compositions and use” (priority 1978, dated 1981).
Where two headings read alike, the source gives them in different places.

What was measured:
[1] = versus phenylbutazone; cited from earlier work
[2] = versus phenylbutazone; cited from earlier work; remark: listed apart in the source
[3] = system: carrageenin edema of the hind paw of rats; test: Acute antiphlogistic action: carrageenin edema of the hind paw of rats after single oral administration; conditions: for ED50: Rattus norvegicus, po, read-out: ED50 (dose which causes a maximum edema inhibition of 50%); for Therapeutic quotient LD50/ED50: carrageenin edema, LD50 7 days oral; for Therapeutic quotient LD50/ED50 / Maximum inhibition of carrageenin edema within 7 hours after oral administration: rats
Protocol: (§1) Biol. Med., 111 (1962) 544]}, on chronic inflammatory processes {Cotton pellet test on rats [Winter et al.: J. Pharmacol. exp. Therap., 141 (1963) 369]} and on adjuvant arthritis [based on the method of Perrine et al., Brit. J. Pharmacol., 21 (1963) 127] is determined.
The influence of the compounds to be tested on carrageenin edema of the hind paw of rats was determined as follows:
The rats are kept at 24° C.
The paw volume of each rat is determined (2 to 3 individual measurements in each case) before edema provocation and at hourly intervals for 7 hours after edema provacation. The average percentage paw swelling of each treated group determined at the specified times after the carrageenin injection is related to that of the untreated control group (=100%).
The maximum percentage edema inhibition serves as a measure of the antiphlogistic action.
The paw volume is determined plethysmometrically. Measuring principle: the volume of liquid displaced through the paw of the rat is recorded digitally via an electromechanical pressure transducer (Statham P 23 V, 0-200 mm Hg).
The doses indicated for the compounds tested were administered in a volume of liquid of 20 ml/kg.

[4] = system: yeast-induced fever in rats; test: Antipyretic action: yeast-induced fever in rats; format: in vivo, rats (female Sprague-Dawley); conditions: for ED (1.5 degC): Rattus norvegicus, po, read-out: ED1.5 (dose which causes a maximum reduction in yeast-induced fever of 1.5° C.)
Protocol: The antipyretic action is determined by the influence of the compounds to be tested on yeast-induced fever in rats.
Hyperthermia is produced in female Sprague-Dawley rats (in groups of 5 animals; weight of each animal: 160 to 180 g) by subcutaneous injection (neck) of 10 ml/kg of a 20 percent strength aqueous brewer's yeast suspension (brewer's yeast "Heliosan"/Hefereformwerk Radolfzell). 24 hours after the yeast injection, the compounds to be tested are administered orally to the animals in a volume of liquid of 5 ml/kg, and a control group receives the corresponding amount of tapwater. The feed (Altromin®R, water ad libitum) was withdrawn from the rats 18 hours beforehand. The rats are kept at about 23° C.
The body temperature is recorded 1 hour before administration of the substance and at hourly intervals after administration of the substance.
[…] The body temperature is measured with a temperature probe (Tastomed H, Braun electronic).

[5] = system: pain reaction provoked in rats by bending an inflamed ankle (AgNO3 arthritis); test: animal or person; format: in vivo; conditions: for Therapeutic quotient LD50/ED50 / therapeutic quotient LD50/ED25: AgNO3 arthritis pain, LD50 7 days oral; for Therapeutic quotient LD50/ED50 / therapeutic quotient LD50/ED25 / ED50 / Inhibition of the pain reaction: rats; for ED25 / ED50: Rattus norvegicus, po; for ED25: read-out: ED25 (dose which completely suppresses the pain reaction in 25% of the animals); for ED50: perorally, at the time of maximum action, read-out: ED50 (dose which completely suppresses the pain reaction in 50% of the animals)
Protocol: Based on the method of HOFFMEISTER et al. [Arzneim. Forsch., 24, (1974) 600], 0.2 ml of a 1% strength silver nitrate solution is injected into the ankle joint (inside) of the right hind paw of female Sprague-Dawley rats (each animal weighing about 160 to 180 g) under ether anaesthesia. The animals are kept at 24° C. and are fed Altromin®R and water ad libitum. After the AgNO3 injection, almost all the animals (90 to 95%) can be made to cry out by moderate bending of the ankle joint. All the animals reacting positively are collected into groups of 10 animals. The compounds to be tested are administered orally in a volume of liquid of 10 ml/kg immediately after administration of the AgNO3; the untreated control animals receive the corresponding amount of tapwater.
Over a period of 4 hours after administration of the substance, the number of animals reacting is determined at half hourly intervals.
The maximum percentage of the protected animals over a period of 4 hours after administration of the substance [relative to the number of animals in the control group reacting (=100%)] serves as a measure of the analgesic action.

[6] = system: formation of granulation tissue after subcutaneous implantation of cotton; test: Chronic antiphlogistic action: cotton pellet test (formation of granulation tissue) in rats; conditions: rats; for Therapeutic quotient LD50/ED20: cotton pellet test, LD50 7 days oral; for Inhibition of the formation of granulation tissue after treatment for 7 days: sodium salt
Protocol: as §1
(§2) Experimental procedure for investigating the influence of the compounds to be tested on the formation of granulation tissue after implantation of cotton in rats (so-called cotton pellet method):
(§3) 1 cotton pellet (manufacturer: Messrs. Hartmann/Heidenheim; cotton pellets size 2, No. 4865/2) which weighs 13.0±0.5 mg and has been impregnated beforehand with 0.1 ml of a solution of 0.5 mg of penicillin G and 0.8 mg of streptomycin sulfate/1 ml of distilled water is in each case implanted subcutaneously into the shoulder-blade region, on both sides, of male Sprague-Dawley rats (groups of 8 animals each; weight of each animal: 150 to 170 g) under diethyl ether anaesthesia and under sterile conditions. The cut skin is closed by means of clamps.
(§4) The compounds to be tested (in the form of the sodium salt in aqueous solution) or the corresponding amount (5 ml/kg/day) of tapwater (=control group) are administered orally each day on seven successive days. On the eighth day, the animals are killed and the cotton granules are exposed carefully, that is to say preserving the fibrous tissue capsule, dried (15 hours at 120°) and weighed. By substracting the weight of the cotton pellets, the amount of newly formed granulation tissue is obtained.
(§5) The percentage reduction in the average granuloma dry weight of a treated group compared with the control group (=100%) serves as a measure of the antiproliferative action of a compound.

[7] = as above; conditions: rat, in vivo, po
Protocol: as §1, §2, §3, §4, §5

[8] = system: adjuvant arthritis in rats; test: Antiarthritic action: adjuvant arthritis in rats (Mycobacterium butyricum); conditions: for ED25: Rattus norvegicus, po, 120 h, read-out: ED25 (inhibition of adjuvant arthritis of 25%); for therapeutic quotient LD50/ED25: adjuvant arthritis, LD50 7 days oral, rats
Protocol: as §1
The influence of the compounds to be tested on polyarthritis in rats caused by Mycobacterium butyricum (so-called "adjuvant arthritis") was determined using the experimental arrangement hereafter described: based on the method described by NEWBOULD and PERRINE et al. [NEWBOULD, B. B.; Brit. J. Pharmacol. 21, 127 (1963); and PERRINE, J. W. and TAKESUE, E. I.; Arch. int. Pharmacodyn., 174, 192 to 198 (1968)], so-called adjuvant arthritis, which manifests itself chiefly in a severe swelling of the tail (primary lesion) and of the paws (secondary lesion), is caused in rats by intradermal injection of a Mycobact. butyricum suspension in liquid paraffin into the base of the tail. Antiphlogistic agents inhibit this swelling reaction.

in vivo = conditions: rat, po

## Cc1cccc(Nc2cscc2C(=O)O)c1C [2,3-dimethylphenyl compound]
[1]
  antipyretic action: superior
[2]
  antiphlogistic action: comparable to that of phenylbutazone

## COc1ccc2c(c1)c(CC(=O)O)c(C)n2C(=O)c1ccc(Cl)cc1 [Compound 2, indomethacin, reference compound]
[3]
  ED50: 4.6 mg/kg
  Therapeutic quotient LD50/ED50: 1.2
[3]; single oral dose 1.0 mg/kg
  Maximum inhibition of carrageenin edema within 7 hours after oral administration: 29%
[3]; single oral dose 3.0 mg/kg
  Maximum inhibition of carrageenin edema within 7 hours after oral administration: 47%
[3]; single oral dose 10.0 mg/kg
  Maximum inhibition of carrageenin edema within 7 hours after oral administration: 56%
[4]
  ED (1.5 degC): 5 mg/kg
[4]; rats, single oral dose 1 mg/kg
  Maximum reduction in yeast-induced fever over a period of 7 hours: 0.2 °C
[4]; rats, single oral dose 3 mg/kg
  Maximum reduction in yeast-induced fever over a period of 7 hours: 0.7 °C
[4]; rats, single oral dose 6 mg/kg
  Maximum reduction in yeast-induced fever over a period of 7 hours: 1.8 °C
[5]
  Therapeutic quotient LD50/ED50: 0.92
  therapeutic quotient LD50/ED25: 4.58
  ED25: 1.2 mg/kg
  ED50: 6 mg/kg
[5]; single oral dose 1 mg/kg
  Inhibition of the pain reaction: 23%
[5]; single oral dose 3 mg/kg
  Inhibition of the pain reaction: 36%
[5]; single oral dose 6 mg/kg
  Inhibition of the pain reaction: 50%
[6]
  Therapeutic quotient LD50/ED20: ~ 1.8
[6]; 7 x 0.1 mg/kg/day orally
  Inhibition of the formation of granulation tissue after treatment for 7 days: 7%
[6]; 7 x 0.3 mg/kg/day orally
  Inhibition of the formation of granulation tissue after treatment for 7 days: 11%
[6]; 7 x 1.0 mg/kg/day orally
  Inhibition of the formation of granulation tissue after treatment for 7 days: 16%
[6]; 7 x 3.0 mg/kg/day orally
  Inhibition of the formation of granulation tissue after treatment for 7 days: 16%
[6]; 7 x 4.0 mg/kg/day orally
  Inhibition of the formation of granulation tissue after treatment for 7 days: 17%
[7]; 5 mg/kg/day
  mortality at 168 h: 25%
[8]
  ED25: 0.18 mg/kg/day
  therapeutic quotient LD50/ED25: 30.6
In vivo
  LD50 at 168 h: 5.5 mg/kg

## O=C(O)Cc1cscc1Nc1c(Cl)cccc1Cl [Compound 3, 4-(2,6-dichloroanilino)-3-thiophenacetic acid]
[3]
  ED50: 1.6 mg/kg
  Therapeutic quotient LD50/ED50: 6.9
[3]; single oral dose 0.3 mg/kg
  Maximum inhibition of carrageenin edema within 7 hours after oral administration: 29%
[3]; single oral dose 1.0 mg/kg
  Maximum inhibition of carrageenin edema within 7 hours after oral administration: 46%
[3]; single oral dose 3.0 mg/kg
  Maximum inhibition of carrageenin edema within 7 hours after oral administration: 56%
[4]; rats, perorally, single dose
  ED (1.5 degC): 0.4 mg/kg
[4]; rats, single oral dose 0.03 mg/kg
  Maximum reduction in yeast-induced fever over a period of 7 hours: 0.4 °C
[4]; rats, single oral dose 0.1 mg/kg
  Maximum reduction in yeast-induced fever over a period of 7 hours: 0.8 °C
[4]; rats, single oral dose 0.3 mg/kg
  Maximum reduction in yeast-induced fever over a period of 7 hours: 1.4 °C
[4]; rats, single oral dose 1 mg/kg
  Maximum reduction in yeast-induced fever over a period of 7 hours: 1.7 °C
[5]
  Therapeutic quotient LD50/ED50: 3.67
  therapeutic quotient LD50/ED25: 11
  ED25: 1 mg/kg
  ED50: 3 mg/kg
[5]; single oral dose 1 mg/kg
  Inhibition of the pain reaction: 26%
[5]; single oral dose 3 mg/kg
  Inhibition of the pain reaction: 50%
[5]; single oral dose 10 mg/kg
  Inhibition of the pain reaction: 62%
[6]
  Therapeutic quotient LD50/ED20: ~ 11
[6]; 7 x 0.1 mg/kg/day orally
  Inhibition of the formation of granulation tissue after treatment for 7 days: 6%
[6]; 7 x 0.3 mg/kg/day orally
  Inhibition of the formation of granulation tissue after treatment for 7 days: 15%
[6]; 7 x 1.0 mg/kg/day orally
  Inhibition of the formation of granulation tissue after treatment for 7 days: 14%
[6]; 7 x 3.0 mg/kg/day orally
  Inhibition of the formation of granulation tissue after treatment for 7 days: 22%
[6]; 7 x 5.0 mg/kg/day orally
  Inhibition of the formation of granulation tissue after treatment for 7 days: 22%
[6]; 7 x 6.0 mg/kg/day orally
  Inhibition of the formation of granulation tissue after treatment for 7 days: 36%
[7]; 6 mg/kg/day
  mortality at 168 h: 0%
[8]
  ED25: 0.2 mg/kg/day
  therapeutic quotient LD50/ED25: 55
In vivo
  LD50 at 168 h: 11 mg/kg
